We go through four compounds from US9782412B2, “Preventive and/or therapeutic agent of immune disease” (TAIHO PHARMACEUTICAL CO., LTD., priority 2015, dated 2017).

One series relates to TNP-IgE mice. Nature of the series: Mouse antigen-induced dermatitis model. The format is in vivo. The settings on record: for Ear swelling control ratio (%): 30 minutes before allergen, 2 hours after antigen. From the text: Type I allergy models accompanied by a skin symptom (a dermatitis model) were produced, with TNP-IgE mice (CLEA Japan, Inc.). The mice are genetically modified BALB/c mice that constantly produce an IgE specific to hapten TNP (trinitrophenol) which is widely used as an allergen (antigen). It is possible to induce an allergic reaction in the mice, only by administering an allergen, without carrying out an immunization. […] An average value of thickening values of both ears was obtained as a value of an individual (provided that a previous value before the allergen application was 0 mm).
Ear swelling control ratio (%) was calculated by the following formula. Ear swelling control ratio (%)=(1−(Average value of ear thickening of compound administered group)/(Average value of ear thickening of vehicle administered group))×100

In a further series the test system is RBL-2H3 cells. The series can be described thus: Inhibitory activity against allergic reaction using RBL-2H3 cells (PGD2 production). The format is cell-based, rat. The following applies: anti-DNP IgE / DNP-BSA, read-out: PGD2 production inhibitory concentration (IC50, (nM)). The procedure: Rat basophilic leukemia cells, RBL-2H3, were suspended in MEM medium containing 10% FBS, and then the cells were inoculated in a culture plate, and cultured in a CO2 incubator (Sanyo Electric Biomedical Co., Ltd.) at 37° C. for 12 hours. After a culture supernatant was removed and the cells were washed, an anti-DNP-mouse IgE (Alpha Diagnostic Inc.) solution was added thereto, and the cells were cultured in the CO2 incubator for 1 hour. After a culture supernatant was removed and the cells were washed, an MEM medium was added thereto.
Further, a DNP-BSA (LSL, Inc.) solution was added thereto and the cells were cultured in the CO2 incubator for 15 minutes. A culture supernatant was collected and reacted, with PGD2-MOX EIA kit (Cayman Chemical Inc.) on the basis of the protocol attached thereto, and absorbance was measured by SUNRISE RAINBOW THERMO (TECAM Inc.).

The subject of a further series is MRL/lpr mice. Nature of the series: Mouse systemic lupus erythematosus model. The format is in vivo. The following applies: at the doses used in the test. The procedure:
MRL/lpr mice (Japan SLC, Inc.) were used to evaluate drug efficacy in this test, since the mice are widely used as mice models in which symptoms of autoimmune diseases similar to human systemic lupus erythematosus spontaneously express. A grouping was carried out on the basis of swellings of lymph nodes in submaxilla and axilla at 14 weeks old, and once-daily oral administration was continued for 42 days from the day of grouping, with vehicle or Example Compound 13 suspension. Urea nitrogen concentration and anti-dsDNA antibody concentration in peripheral blood at the final administration day were measured.

A short description of series [1]: Influence on body weight of SD rat by repeated administration. The format is in vivo. The settings on record: for Relative body weight change ratio (%): 750 mg/kg orally once a day, two weeks. The procedure: The rats were grouped as follows, with four animals in each group, by a random classification method such that the average body weights of the respective groups would be almost uniform (Day 1).
The body weight change (BWC) was used as an index indicating the systemic toxicity caused by the compound administration. The BWC was calculated by the following formula. BWC (%)=([(Rat body weight on 14 days after the administration)−(Rat body weight at the time of grouping)]/(Rat body weight at the time of grouping))×100
The relative body weight change ratios in the each compound-administered groups were calculated by the following formula when the BWC in the vehicle-administered group was set as 1, and the results are indicated in Table 25. Relative body weight change ratio (%)=(BWC in the compound-administered group)/BWC in the vehicle-administered group)×100

Series [2] deals with T1, phosphorylated BTK protein in Ramos cells (Homo sapiens, UniProt Q06187).
T1 construct: endogenous in cells; host or cells: Ramos cells
T1 sequence (Q06187 whole entry): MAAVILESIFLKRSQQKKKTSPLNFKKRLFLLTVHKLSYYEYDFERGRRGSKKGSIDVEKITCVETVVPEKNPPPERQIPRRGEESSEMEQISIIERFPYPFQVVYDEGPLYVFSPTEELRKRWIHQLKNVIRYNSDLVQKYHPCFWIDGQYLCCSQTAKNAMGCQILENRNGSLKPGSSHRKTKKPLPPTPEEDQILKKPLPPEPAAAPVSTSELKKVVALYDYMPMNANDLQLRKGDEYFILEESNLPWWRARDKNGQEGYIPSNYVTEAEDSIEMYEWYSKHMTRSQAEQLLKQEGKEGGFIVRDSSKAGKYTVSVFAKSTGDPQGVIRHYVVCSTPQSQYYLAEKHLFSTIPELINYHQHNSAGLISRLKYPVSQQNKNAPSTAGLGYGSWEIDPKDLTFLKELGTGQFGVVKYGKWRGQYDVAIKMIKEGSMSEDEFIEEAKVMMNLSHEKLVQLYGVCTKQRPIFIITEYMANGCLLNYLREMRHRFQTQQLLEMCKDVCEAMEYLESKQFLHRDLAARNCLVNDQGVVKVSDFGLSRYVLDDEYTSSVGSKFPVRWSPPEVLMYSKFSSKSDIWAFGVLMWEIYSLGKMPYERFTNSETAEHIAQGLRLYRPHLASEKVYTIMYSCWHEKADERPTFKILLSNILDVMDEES
Nature of the series: Inhibitory activity against B-cell activation using Ramos cells (BTK phosphorylation). The format is cell-based. The settings on record: anti-human IgM stimulation, pY223 Western blotting, read-out: Phosphorylated BTK inhibitory concentration (IC50, (nM)). The procedure: The human B-cell lymphoma-derived cell line, Ramos cells were suspended in RPMI1640 medium, and then the cells were inoculated in a culture plate at a concentration of 2.0×10^6 (cells/well). The cells were cultured in a CO2 incubator (Sanyo Electric Biomedical Co., Ltd.) at 37° C. for 12 hours. […] Then, 10 minutes of stimulation was provided with Goat F(ab′)2 anti-human IgM antibody-UNLB (southern biotech Corp.). Thereafter, the cells were harvested, and 50 μL of (a cell extract (NP-40; Invitrogen, Inc.) containing 1×protease inhibitor (Hoffmann-La Roche AG) and 1×phosphatase cocktail inhibitor (Sigma-Aldrich Co.)) was added to the cell pellets. The cell pellets were left to stand for 10 minutes on ice. The amount of protein in the collected cell extract was quantitatively analyzed by a DC protein assay (Bio-Rad Laboratories, Inc.), and 20 μg of proteins per lane was applied to a Criterion TGX™ (Bio-Rad Laboratories, Inc.). After electrophoresis was performed, Western blotting was performed with Trans-Blot™ Turbo™ (Bio-Rad Laboratories, Inc.). Thereafter, phosphorylated BTK protein and BTK protein were detected with LAS4000 (GE Healthcare, Inc.) with a BTK phosphor (pY223) antibody (EPITOMICS Inc.) and a BTK antibody (Abcam, plc.).
A general note: In western blotting, separated proteins are transferred to a membrane and probed.

Series [3] deals with T2, recombinant human BTK protein (Homo sapiens, UniProt Q06187).
T2 construct: purchased Carna Biosciences, Inc
T2 sequence (Q06187 whole entry): as above
Nature of the series: Measurement of BTK inhibitory activity (in vitro). The format is biochemical. The settings on record: ATP 45 μM, 40 minutes at 25° C. From the text: Regarding the setting of the conditions for a method for measuring the inhibitory activity of a compound against BTK kinase activity in vitro, it is described in the consumable reagent supplies price list for LabChip (registered trademark) series of PerkinElmer, Inc. that FL-PEPTIDE 2 corresponds to a substrate peptide for the measurement of BTK kinase activity. Therefore, FL-PEPTIDE 2 was used as a substrate. The purified recombinant human BTK protein used in the test was purchased from Carna Biosciences, Inc.
Regarding the measurement of the inhibitory activity of the compounds, firstly, the compounds of the present invention were diluted stepwise with DMSO. Subsequently, BTK protein, a substrate peptide (final concentration was 1 μM), magnesium chloride (final concentration was 10 mM), ATP (final concentration was 45 μM), and a DMSO solution of the compounds of the present invention (final concentration of DMSO was 5%) were added to a buffer solution for kinase reaction (20 mM HEPES (pH 7.5), 2 mM dithiotheitol, 0.01% Triton X-100), and after the solution was incubated for 40 minutes at 25° C., a kinase reaction was carried out. The reaction was terminated by adding EDTA thereto so as to obtain a final concentration of 30 mM. Finally, a substrate peptide that was not phosphorylated (S) and a phosphorylated peptide (P) were separated and detected by microchannel capillary electrophoresis with a LabChip EZ Reader II (PerkinElmer, Inc.).

For a further series, the system named is EGFR/BTK. Nature of the series: BTK inhibition selectivity compared with EGFR kinase inhibitory activity (in vitro). The format is biochemical, human. The following applies: ratio of IC50 values. The procedure: Therefore, a biotinated peptide (biotin-[…]) was produced by referring to the amino acid sequence of the peptide. The purified recombinant human EGFR protein used in the test was purchased from Carna Biosciences, Inc.
Regarding the measurement of the inhibitory activity of the compounds, firstly, the compounds of the present invention were diluted stepwise with DMSO. […] The reaction was terminated by adding EDTA thereto so as to obtain a final concentration of 24 mM. Subsequently, a detection liquid containing Eu-labeled anti-phosphorylated tyrosine antibody PT66 (PerkinElmer, Inc.) and SureLight APC-SA (PerkinElmer, Inc.) was added thereto, and the system was left to stand for 2 hours or longer at room temperature.

Another series deals with A431 cells/TMD8 cells. The series can be described thus: Proliferation inhibitory activity against cell lines expressing BTK and EGFR, comparison of selectivity. The format is cell-based, human. The settings on record: cells cultured three days with compound, CELLTITER GLO. From the text: TMD8 cells, which are of a diffuse large B-cell lymphoma cell line expressing BTK, were suspended in RPMI1640 medium (Life Technologies Corp.) containing 10% fetal bovine serum. A431 cells, which are of an EGFR-overexpressing, highly activated human epidermoid carcinoma cell line, were suspended in DMEM, high glucose medium (Life Technologies Corp.) containing 10% fetal bovine serum. The cell suspensions were inoculated into each well of 384-well flat-bottomed microplates, and the cells were cultured for one day at 37° C. in an incubator containing 5% carbon dioxide gas. […] A DMSO solution of the test compounds was diluted with the medium used in the suspension of the each cell, and this was added to each of the wells of the cell culture plates such that the final concentration of DMSO would be 0.2%. The cells were further cultured for three days at 37° C. in an incubator containing 5% carbon dioxide gas. […] Proliferation inhibition ratio (%)=(C−T)/(C−C0)×100
T: Luminescence intensity of a well in which the test compound was added
C: Luminescence intensity of a well in which the test compound was not added
C0: Luminescence intensity of a well measured before the addition of the test compound
When a comparison is made between the cell proliferation inhibitory activity against A431 cells that depends on the EGFR proliferation signaling and the cell proliferation inhibitory activity against TMD8 cells that depends on the BTK proliferation signaling, the influence of the respective kinases at a cellular level is able to be evaluated. That is, when the “A431 cell proliferation inhibition ratio/TMD8 cell proliferation inhibition ratio” is calculated, it is contemplated that as the value of the ratio is larger, the selectivity to BTK over EGFR in the cells is higher.
(Cellular ATP, detected with luciferase, serves as a proxy for viable cell number.)

The test system of series [4] is mouse collagen-induced arthritis model. The series can be described thus: Mouse collagen-induced arthritis model (therapeutic effect), Test Example 8. The format is in vivo. The settings on record: therapeutic administration, FIG. 3. The procedure: (§1) Seven-week-old male/DBA/1 mice (CHARLES RIVER LABORATORIES JAPAN, INC.) were intracutaneously injected in the dorsum with 100 μL/body of an equal amount-mixed solution (emulsion) of a 4 mg/mL bovine type 2 collagen solution (Collagen Research Center) and a complete freund's adjuvant (DIFCO Inc.) (Initial immunization). After 21 days therefrom, the mice were intracutaneously injected in the base of the tail with 100 μL/body of the equal amount-mixed solution (emulsion) of a 4 mg/mL of bovine type 2 collagen solution (Collagen Research Center) and a complete freund's adjuvant (DIFCO Inc.) to carry out an additional immunization. […] Symptoms of arthritis in day 0, day 4, day 7, day 11, and day 14 were scored with the naked eye (0: No change, 1: Swelling of a finger, 2: Swelling of two fingers or more, 3: Swelling of instep, 4: Swelling of all fingers besides swelling extending to wrist/ankle), and a total of four limbs was obtained as a point of an individual (maximum 16 points).

Series [5] has the same test system. Nature of the series: Mouse collagen-induced arthritis model (therapeutic effect), Test Example 7. The settings on record: once-a-day oral for 15 days from sixth day after additional immunization, FIG. 2. The format is in vivo. The procedure:
as §1

The mark [6] stands for this setting: Rattus norvegicus, RBL-2H3, RBL-2H3 cells.
Setting [7] is: repeated administration for two weeks.

Structures are written as SMILES. Read-outs that look alike come from different tables or passages of the source.

For `C=CC(=O)N1CCC[C@@H](n2nc(C(=O)Nc3nc4ccccc4o3)c3c(N)ncnc32)C1` [Example 13, (R)-1-(1-acryloylpiperidin-3-yl)-4-amino-N-(benzo[d]oxazol-2-yl)-1H-pyrazolo[3,4-d]pyrimidine-3-carboxamide], the “Ear swelling control ratio (%)” value in the series with TNP-IgE mice (1 mg/kg oral) is 54%; with TNP-IgE mice (3 mg/kg oral) it was 79%. The IC50 in the series with RBL-2H3 cells (setting [6]) was 26 nM; in series [2] it was 0.25 nM. For the same compound, the “remarkable decrease in body weight” value in the series with MRL/lpr mice is on record as “not recognized”. Also, in [1], the “Relative body weight change ratio (%)” value is reported as 79.1%.

Regarding `C=CC(=O)N1CCC[C@@H](n2nc(C(=O)Nc3nc4cc(F)ccc4o3)c3c(N)ncnc32)C1` [Example 12, (R)-1-(1-acryloylpiperidin-3-yl)-4-amino-N-(5-fluorobenzo[d]oxazol-2-yl)-1H-pyrazolo[3,4-d]pyrimidine-3-carboxamide], the “Ear swelling control ratio (%)” value in the series on TNP-IgE mice (1 mg/kg oral) came out at 64%; with TNP-IgE mice (3 mg/kg oral), 80%. Also, the “ear swellings induced by the allergen application” value in the series with TNP-IgE mice (from low dose, compared with Reference compound 1) is listed as “suppressed equivalently or strongly ear swellings”. Also, the IC50 in the series on RBL-2H3 cells (setting [6]) was determined as 15 nM; in series [2] it was 0.18 nM. The “Relative body weight change ratio (%)” value in series [1] turned out to be 91.2%.

With `C/C=C/C(=O)N1CCC[C@@H](n2nc(C(=O)Nc3nc4ccccc4o3)c3c(N)ncnc32)C1` [Example 14, (R,E)-4-amino-N-(benzo[d]oxazol-2-yl)-1-(1-(but-2-enoyl)piperidin-3-yl)-1H-pyrazolo[3,4-d]pyrimidine-3-carboxamide], in [3], the IC50 stood at 14.1 nM. For the same compound, in the series on EGFR/BTK, the “EGFR inhibitory activity IC50 value (nM)/BTK inhibitory activity IC50 value (nM)” value is on record as 128.1. Besides, the “A431 cell proliferation inhibition ratio/TMD8 cell proliferation inhibition ratio” value with A431 cells/TMD8 cells was greater than 1400.6.

Regarding `C=CC(=O)N1CCC[C@@H](n2nc(-c3ccc(Oc4ccccc4)cc3)c3c(N)ncnc32)C1` [Reference compound 1, (R)-1-(3-(4-amino-3-(4-phenoxyphenyl)-1H-pyrazolo[3,4-d]pyrimidin-1-yl)piperidin-1-yl)prop-2-en-1-one, reference compound], the values for the IC50 in the series on RBL-2H3 cells (RBL-2H3 cells) and with RBL-2H3 cells (setting [6]) were 348 nM and roughly 350 nM, respectively. Moreover, the arthritis score result in series [4] and in series [5] was “delayed the further increase of the increased arthritis score” in each case. Also, in series [1] (setting [7]), the loose bowel entry was “individuals suffering from loose bowel were recognized”. Further, in series [1] (setting [7]), the “rat body weight increase compared with the vehicle-administered group” value is listed as “very small”.
